Biological target: TYK2 (Homo sapiens, UniProt P29597)
Test: TYK2 protein degradation in NOMO-1 cells by immunoblotting
Format: cell-based
Parameters: endogenous in cells
Details: NOMO-1 cells
Description: NOMO-1 cells were treated with CPD-155, CPD-157, and CPD-158 at 0.1, 1, 10, 100 and 1000 nM concentrations for 16 hours. […] Data shown that CPD-155, CPD-157, and CPD-158 are very potent at the reduction protein levels of TYK2.
MOLT-4 or NOMO-1 cells were cultured at 37° C. with 5% CO2 in RPMI 1640 Medium supplemented with 10% fetal bovine serum. Cells were authenticated using the short tandem repeat (STR) assays. Mycoplasma test results were negative.
Cultured cells were washed with cold PBS once and lysed in cold RIPA buffer supplemented with protease inhibitors and phosphatase inhibitors (Beyotime Biotechnology). The solutions were then incubated at 4° C. for 30 minutes with gentle agitation to fully lyse cells. Cell lysates were centrifuged at 13,000 rpm for 10 minutes at 4° C. and pellets were discarded. Total protein concentrations in the lysates were determined by BCA assays (Beyotime Biotechnology). Cell lysates were mixed with Laemmli loading buffer to 1× and heated at 99° C. for 5 min. Proteins were resolved on SDS-PAGE and visualized by chemiluminescence. Images were taken by a ChemiDoc MP Imaging system (Bio-Rad). Protein bands were quantitated using the accompanied software provided by Bio-Rad.

Sequence of TYK2 (P29597 whole entry): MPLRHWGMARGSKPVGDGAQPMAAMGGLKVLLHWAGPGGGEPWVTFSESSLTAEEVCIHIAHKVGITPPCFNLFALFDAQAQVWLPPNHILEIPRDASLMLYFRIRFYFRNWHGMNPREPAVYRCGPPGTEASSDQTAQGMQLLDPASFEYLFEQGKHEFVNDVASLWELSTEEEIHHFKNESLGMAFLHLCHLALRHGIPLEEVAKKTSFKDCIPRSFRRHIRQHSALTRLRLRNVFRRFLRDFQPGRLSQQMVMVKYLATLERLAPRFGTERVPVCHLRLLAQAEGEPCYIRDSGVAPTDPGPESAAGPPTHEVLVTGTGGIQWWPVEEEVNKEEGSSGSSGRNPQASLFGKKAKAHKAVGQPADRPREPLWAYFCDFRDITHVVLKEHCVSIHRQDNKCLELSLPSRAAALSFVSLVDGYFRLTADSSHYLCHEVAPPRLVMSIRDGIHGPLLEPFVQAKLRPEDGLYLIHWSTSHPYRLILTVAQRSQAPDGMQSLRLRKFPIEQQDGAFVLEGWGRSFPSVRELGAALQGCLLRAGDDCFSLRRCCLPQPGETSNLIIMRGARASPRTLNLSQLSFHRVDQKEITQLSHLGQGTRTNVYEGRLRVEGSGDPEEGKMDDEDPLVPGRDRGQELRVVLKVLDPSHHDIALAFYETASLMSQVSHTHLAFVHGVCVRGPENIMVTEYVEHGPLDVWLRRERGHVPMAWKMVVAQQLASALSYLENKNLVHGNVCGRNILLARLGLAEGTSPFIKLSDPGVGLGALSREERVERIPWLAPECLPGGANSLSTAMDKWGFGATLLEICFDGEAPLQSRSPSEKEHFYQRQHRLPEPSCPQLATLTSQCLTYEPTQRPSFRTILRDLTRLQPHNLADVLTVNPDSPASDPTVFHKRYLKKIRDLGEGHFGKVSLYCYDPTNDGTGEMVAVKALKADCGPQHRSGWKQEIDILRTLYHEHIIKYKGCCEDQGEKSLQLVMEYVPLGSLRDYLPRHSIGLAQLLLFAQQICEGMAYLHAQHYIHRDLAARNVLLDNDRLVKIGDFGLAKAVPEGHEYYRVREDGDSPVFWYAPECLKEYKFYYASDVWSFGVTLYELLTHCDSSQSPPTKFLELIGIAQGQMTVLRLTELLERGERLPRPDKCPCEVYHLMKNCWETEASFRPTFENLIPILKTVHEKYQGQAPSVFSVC

SMILES	TYK2 Degradation (NOMO-1, 100 nM)	TYK2 Degradation (NOMO-1, 10 nM)
CNC(=O)c1nnc(Nc2ccc(C#CC3CCN(C(=O)CCCCCCCC(=O)N[C@H](C(=O)N4C[C@H](O)C[C@H]4C(=O)N[C@@H](C)c4ccc(-c5scnc5C)cc4)C(C)(C)C)CC3)cn2)cc1Nc1cccc(-c2ncn(C)n2)c1OC [CPD-120, 6-((5-((1-(9-(((S)-1-((2S,4R)-4-Hydroxy-2-(((S)-1-(4-(4-methylthiazol-5-yl)phenyl)ethyl)carbamoyl)pyrrolidin-1-yl)-3,3-dimethyl-1-oxobutan-2-yl)amino)-9-oxononanoyl)piperidin-4-yl)ethynyl)pyridin-2-yl)amino)-4-((2-methoxy-3-(1-methyl-1H-1,2,4-triazol-3-yl)phenyl)amino)-N-methylpyridazine-3-carboxamide]	A (A: ≥60% TYK2 degradation)	–
CNC(=O)c1nnc(Nc2ccc(C#CC3CCN(C(=O)CCCCCCCCC(=O)N[C@H](C(=O)N4C[C@H](O)C[C@H]4C(=O)N[C@@H](C)c4ccc(-c5scnc5C)cc4)C(C)(C)C)CC3)cn2)cc1Nc1cccc(-c2ncn(C)n2)c1OC [CPD-121, 6-((5-((1-(10-(((S)-1-((2S,4R)-4-hydroxy-2-(((5)-1-(4-(4-methylthiazol-5-yl)phenyl)ethyl)carbamoyl)pyrrolidin-1-yl)-3,3-dimethyl-1-oxobutan-2-yl)amino)-10-oxodecanoyl)piperidin-4-yl)ethynyl)pyridin-2-yl)amino)-4-((2-methoxy-3-(1-methyl-1H-1,2,4-triazol-3-yl)phenyl)amino)-N-methylpyridazine-3-carboxamide]	A (A: ≥60% TYK2 degradation)	A (A: ≥60% TYK2 degradation)
CNC(=O)c1nnc(Nc2ccc(C#CC3CN(C(=O)CCC(=O)N[C@H](C(=O)N4C[C@H](O)C[C@H]4C(=O)N[C@@H](C)c4ccc(-c5scnc5C)cc4)C(C)(C)C)C3)cn2)cc1Nc1cccc(-c2ncn(C)n2)c1OC [CPD-122, 6-((5-((1-(4-(((S)-1-((2S,4R)-4-Hydroxy-2-(((S)-1-(4-(4-methylthiazol-5-yl)phenyl)ethyl)carbamoyl)pyrrolidin-1-yl)-3,3-dimethyl-1-oxobutan-2-yl)amino)-4-oxobutanoyl)azetidin-3-yl)ethynyl)pyridin-2-yl)amino)-4-((2-methoxy-3-(1-methyl-1H-1,2,4-triazol-3-yl)phenyl)amino)-N-methylpyridazine-3-carboxamide]	C (C: ≤20% TYK2 degradation)	–
CNC(=O)c1nnc(Nc2ccc(C#CC3CN(C(=O)CCCCC(=O)N[C@H](C(=O)N4C[C@H](O)C[C@H]4C(=O)N[C@@H](C)c4ccc(-c5scnc5C)cc4)C(C)(C)C)C3)cn2)cc1Nc1cccc(-c2ncn(C)n2)c1OC [CPD-123, 6-((5-((1-(6-(((S)-1-((2S,4R)-4-Hydroxy-2-(((S)-1-(4-(4-methylthiazol-5-yl)phenyl)ethyl)carbamoyl)pyrrolidin-1-yl)-3,3-dimethyl-1-oxobutan-2-yl)amino)-6-oxohexanoyl)azetidin-3-yl)ethynyl)pyridin-2-yl)amino)-4-((2-methoxy-3-(1-methyl-1H-1,2,4-triazol-3-yl)phenyl)amino)-N-methylpyridazine-3-carboxamide]	A (A: ≥60% TYK2 degradation)	B (B: <60% TYK2 degradation, and >20% TYK2 degradation)
CNC(=O)c1nnc(Nc2ccc(C#CC3CN(C(=O)CCCCCC(=O)N[C@H](C(=O)N4C[C@H](O)C[C@H]4C(=O)N[C@@H](C)c4ccc(-c5scnc5C)cc4)C(C)(C)C)C3)cn2)cc1Nc1cccc(-c2ncn(C)n2)c1OC [CPD-124, 6-((5-((1-(7-(((S)-1-((2S,4R)-4-hydroxy-2-(((S)-1-(4-(4-methylthiazol-5-yl)phenyl)ethyl)carbamoyl)pyrrolidin-1-yl)-3,3-dimethyl-1-oxobutan-2-yl)amino)-7-oxoheptanoyl)azetidin-3-yl)ethynyl)pyridin-2-yl)amino)-4-((2-methoxy-3-(1-methyl-1H-1,2,4-triazol-3-yl)phenyl)amino)-N-methylpyridazine-3-carboxamide]	A (A: ≥60% TYK2 degradation)	A (A: ≥60% TYK2 degradation)
CNC(=O)c1nnc(Nc2ccc(C#CC3CN(C(=O)CCCCCCC(=O)N[C@H](C(=O)N4C[C@H](O)C[C@H]4C(=O)N[C@@H](C)c4ccc(-c5scnc5C)cc4)C(C)(C)C)C3)cn2)cc1Nc1cccc(-c2ncn(C)n2)c1OC [CPD-125, 6-((5-((1-(8-(((S)-1-((2S,4R)-4-hydroxy-2-(((S)-1-(4-(4-methylthiazol-5-yl)phenyl)ethyl)carbamoyl)pyrrolidin-1-yl)-3,3-dimethyl-1-oxobutan-2-yl)amino)-8-oxooctanoyl)azetidin-3-yl)ethynyl)pyridin-2-yl)amino)-4-((2-methoxy-3-(1-methyl-H-1,2,4-triazol-3-yl)phenyl)amino)-N-methylpyridazine-3-carboxamide]	A (A: ≥60% TYK2 degradation)	A (A: ≥60% TYK2 degradation)
CNC(=O)c1nnc(Nc2ccc(CNC(=O)CCCCCC(=O)N[C@H](C(=O)N3C[C@H](O)C[C@H]3C(=O)N[C@@H](C)c3ccc(-c4scnc4C)cc3)C(C)(C)C)cn2)cc1Nc1cccc(-c2ncn(C)n2)c1OC [CPD-130, N1-((S)-1-((2S,4R)-4-Hydroxy-2-(((S)-1-(4-(4-methylthiazol-5-yl)phenyl)ethyl)carbamoyl)pyrrolidin-1-yl)-3,3-dimethyl-1-oxobutan-2-yl)-N7-((6-((5-((2-methoxy-3-(1-methyl-1H-1,2,4-triazol-3-yl)phenyl)amino)-6-(methylcarbamoyl)pyridazin-3-yl)amino)pyridin-3-yl)methyl)heptanediamide]	B (B: <60% TYK2 degradation, and >20% TYK2 degradation)	–

Further lines, results first:

TYK2 Degradation (NOMO-1, 100 nM)	TYK2 Degradation (NOMO-1, 10 nM)	SMILES
A (A: ≥60% TYK2 degradation)	A (A: ≥60% TYK2 degradation)	CNC(=O)c1nnc(Nc2ccc(C#CC3CN(C(=O)CCCCCCCC(=O)N[C@H](C(=O)N4C[C@H](O)C[C@H]4C(=O)N[C@@H](C)c4ccc(-c5scnc5C)cc4)C(C)(C)C)C3)cn2)cc1Nc1cccc(-c2ncn(C)n2)c1OC [CPD-126, 6-((5-((1-(9-(((S)-1-((2S,4R)-4-hydroxy-2-(((S)-1-(4-(4-methylthiazol-5-yl)phenyl)ethyl)carbamoyl)pyrrolidin-1-yl)-3,3-dimethyl-1-oxobutan-2-yl)amino)-9-oxononanoyl)azetidin-3-yl)ethynyl)pyridin-2-yl)amino)-4-((2-methoxy-3-(1-methyl-H-1,2,4-triazol-3-yl)phenyl)amino)-N-methylpyridazine-3-carboxamide]
A (A: ≥60% TYK2 degradation)	A (A: ≥60% TYK2 degradation)	CNC(=O)c1nnc(Nc2ccc(C#CC3CN(C(=O)CCCCCCCCC(=O)N[C@H](C(=O)N4C[C@H](O)C[C@H]4C(=O)N[C@@H](C)c4ccc(-c5scnc5C)cc4)C(C)(C)C)C3)cn2)cc1Nc1cccc(-c2ncn(C)n2)c1OC [CPD-127, 6-((5-((1-(10-(((S)-1-((2S,4R)-4-hydroxy-2-(((S)-1-(4-(4-methylthiazol-5-yl)phenyl)ethyl)carbamoyl)pyrrolidin-1-yl)-3,3-dimethyl-1-oxobutan-2-yl)amino)-10-oxodecanoyl)azetidin-3-yl)ethynyl)pyridin-2-yl)amino)-4-((2-methoxy-3-(1-methyl-1H-1,2,4-triazol-3-yl)phenyl)amino)-N-methylpyridazine-3-carboxamide]
C (C: ≤20% TYK2 degradation)	–	CNC(=O)c1nnc(Nc2ccc(CNC(=O)CCC(=O)N[C@H](C(=O)N3C[C@H](O)C[C@H]3C(=O)N[C@@H](C)c3ccc(-c4scnc4C)cc3)C(C)(C)C)cn2)cc1Nc1cccc(-c2ncn(C)n2)c1OC [CPD-128, N1-((S)-1-((2S,4R)-4-Hydroxy-2-(((S)-1-(4-(4-methylthiazol-5-yl)phenyl)ethyl)carbamoyl)pyrrolidin-1-yl)-3,3-dimethyl-1-oxobutan-2-yl)-N4-((6-((5-((2-methoxy-3-(1-methyl-1H-1,2,4-triazol-3-yl)phenyl)amino)-6-(methylcarbamoyl)pyridazin-3-yl)amino)pyridin-3-yl)methyl)succinamide]
A (A: ≥60% TYK2 degradation)	C (C: ≤20% TYK2 degradation)	CNC(=O)c1nnc(Nc2ccc(CNC(=O)CCCCC(=O)N[C@H](C(=O)N3C[C@H](O)C[C@H]3C(=O)N[C@@H](C)c3ccc(-c4scnc4C)cc3)C(C)(C)C)cn2)cc1Nc1cccc(-c2ncn(C)n2)c1OC [CPD-129, N1-((S)-1-((2S,4R)-4-Hydroxy-2-(((S)-1-(4-(4-methylthiazol-5-yl)phenyl)ethyl)carbamoyl)pyrrolidin-1-yl)-3,3-dimethyl-1-oxobutan-2-yl)-N6-((6-((5-((2-methoxy-3-(1-methyl-1H-1,2,4-triazol-3-yl)phenyl)amino)-6-(methylcarbamoyl)pyridazin-3-yl)amino)pyridin-3-yl)methyl)adipamide]
